Measurements: paper PMC10033663, “Acute pharmacological profile of 2C-B-Fly-NBOMe in male Wistar rats—pharmacokinetics, effects on behaviour and thermoregulation” (Frontiers in Pharmacology, 2023)
Entries after “also recorded” stand apart in the source; their conditions may differ. Read-outs that look alike come from different tables or passages of the source.

Key:
[1] = three different systems; ref Nykodemová et al., 2021; cited from earlier work
male Wistar rats [2] = experiment: Observation of 5-HT2A-related behaviour (head-twitch response, wet dog shakes); details: rat, in vivo
male Wistar rats [3] = experiment: Open field test (OFT); assay type: in vivo
Procedure: OFT was performed in a black square plastic arena (80 × 80 × 40 cm) in an evenly lit and sound-proof testing room. Rats were individually placed into the centre and allowed to explore the arena for 30 min while their behaviour was recorded. The experimental arena was cleaned with 70% ethanol after each subject. Arena was virtually divided into a 5 × 5 grid of identical squares; 16 squares were located next to the walls (peripheral zone) and 9 squares were in the centre (central zone). Software EthoVision XT 14.0 software (Noldus, Netherlands) was used to capture raw data used in the calculation of the following dependent variables: trajectory length (cm; corrected for deviations of <3 cm) and its temporal dynamics in 5 min intervals; thigmotaxis (∑fperipheral zones/∑fall zones, f = frequency of appearance in the zone) reflecting the probability of appearance in the peripheral zone; Tcenter reflecting time spent in the centre of the arena (∑timecentral zones).
Locomotor activity in OFT (mean trajectory length across 5 min blocks) was evaluated using a 2 × 4 × 6 mixed factorial ANOVA with temporal testing onset (15 or 60 min) and drug treatment (2C-B-Fly-NBOMe 0.2, 1, or 5 mg/kg or ctrl) as between-subjects factors, and time blocks (6 × 5 min intervals) as a within-subjects factor. Spatial distribution of animal movement in OFT (thigmotaxis and T center) and PPI parameters (habituation, ASR and % of PPI) were each analysed using a 2 × 4 factorial ANOVA with temporal testing onset (15 or 60 min) and drug treatment (2C-B-Fly-NBOMe 0.2, 1, or 5 mg/kg or ctrl) as between-subjects factors.

[4] = Pharmacokinetics of 2C-B-Fly-NBOMe in blood serum and brain tissue (LC/MS); assay type: in vivo, male Wistar rats; details: for k el: read-out: ke (h^-1) elimination rate constant (converted)
Procedure: For the pharmacokinetic study, rats were treated with 1 mg/kg s. c. of 2C-B-Fly-NBOMe and then sacrificed by decapitation after 0.5, 1, 2, 4, 8 and 24 h (n = 8 per time point). Collected blood was left to clot in a refrigerator for 1 h, then centrifuged for 10 min at 1500 g, 10°C, and the separated serum was collected. Whole brains were excised manually using surgical instruments. All serum and brain samples were stored at −20°C until the analysis.
200 μl of blood serum was diluted in a microtube with 200 μl of 1% ammonia solution and homogenized in a Bullet Blender tissue homogenizer (speed 2, time 5 min). Next, 400 μl of ethyl acetate was added by the automatic dispenser and the whole content was homogenized again (speed 3, time 5 min), additional 400 μl of ethyl acetate was added and the sample was homogenized for the last time. The homogenate was centrifuged (10 min, 25°C, 12,000 RPM), 600 μl of the top layer was transferred into a new microtube and 50 μl of 10% formic acid solution was added. After proper shaking, the solution was evaporated in the CentriVap concentrator. The residue was then dissolved in 100 μl of methanol and shaken for 10 min. Prior to the analysis, the solution was diluted 1:1 in deionized water, mixed and centrifuged.
100 µL of 1% ammonium hydroxide solution was added to 200 mg of brain tissue. A mixture was homogenized with 200 mg of zirconium oxide beads in a BulletBlender for 10 min (speed 5). 400 μL of ethyl acetate was added to the mixture and homogenized (BulletBlender, speed 3, time 5 min). Additional 400 µL of ethyl acetate was added to the mixture and homogenized (BulletBlender, speed 3, time 5 min). Samples were centrifuged (10 min, 25°C, 12,000 RPM), 400 µL of supernatant was acidified and completely evaporated (Centrivap Concentrator). The dry residue was reconstituted with 400 µL of methanol. Prior to the analysis, 250 µL of the solution was diluted with 750 µL of water, mixed, and centrifuged (0.2 µm PVDF filter).
The samples were analysed using ultra-high performance liquid chromatography-tandem mass spectrometry instrumentation (1,290 Infinity—6,460 Triple Quadrupole LC/MS Agilent Technologies with AJS electrospray ionization source). A column Kinetex Biphenyl (100 × 2.1 mm, 2.6 µm) with a pre-column was used for a chromatographic separation at 35°C with gradient elution in a system of 5 mM ammonium formate with 0.01% (v/v) formic acid (mobile phase A) and methanol with 0.01% (v/v) formic acid (mobile phase B). The gradient started at 10% B, increased from 10% to 50% B in 0.5 min and from 50% to 100% B in 1.5 min, held for 2 min at 100% B, decreased to 10% B in 0.5 min and held for 2 min at 10% B. Data were acquired in positive electrospray ionization (ESI) mode using a multiple reaction monitoring method, one quantification ion and three confirmation ions were used. 2C-B-Fly-NBOMe was quantified using an external matrix-matched calibration. The limit of quantification was 1 ng/ml (1 ng/g for brain tissue). The matrix-matched calibration was performed in duplicates; real samples were also processed in duplicates.
For the pharmacokinetic data, a one-compartment model with a first-order absorption equation ([Wijnand, 1988]) was fitted using a cubic spline interpolation: Ct=D·ka·F/V/ka−ke×expke·t−exp(−ka·t Where C = 2C-B-Fly-NBOMe concentration, t = time, D = dose, ka = absorption rate constant, F = bioavailability, V = volume of distribution, ke = elimination rate constant.
The half-life of the drug elimination was calculated using Package PKNCA version 0.9.4 implemented in R software ([Buckeridge et al., 2015]).

[5] = ref Richter et al. (2020); cited from earlier work
[6] = 0.2, 1 and 5 mg/kg s. c., 15 and 60 min onset
[7] = brain, 1 mg/kg s. c., mean ± SEM
[8] = male, Wistar, rat, sc, brain, 1 mg/kg s. c., mean ± SEM
[9] = male, Wistar, rat, sc, serum, 1 mg/kg s. c., mean ± SEM
[10] = serum, 1 mg/kg s. c., mean ± SEM

SMILES: COc1ccccc1CNCCc1c2c(c(Br)c3c1OCC3)OCC2 [2C-B-Fly-NBOMe]
- number of phase I metabolites [1]: thirty-five
- number of phase II metabolites [1]: nine
- behaviour typical of 5-HT2A receptor activation (head-twitch response or wet dog shakes) (male Wistar rats [2]): did not demonstrate any behaviour
- Tcentre (time spent in the centre of the arena) (male Wistar rats [3]; [6]): not affected
- thigmotaxis (male Wistar rats [3]; [6]): not affected
- total trajectory length (locomotor activity) versus ctrl (male Wistar rats [3]; 0.2, 1 and 5 mg/kg s. c., 15 and 60 min testing onset): dose-dependently reduced; also recorded: significant differences in all remaining groups versus ctrl except for 0.2 mg/kg of 2C-B-Fly-NBOMe in the 60 min onset
- Locomotor habituation (male Wistar rats [3]; 0.2, 1 and 5 mg/kg s. c., both testing onsets): dose-dependently disturbed
- locomotion in 5 min time blocks versus ctrl (male Wistar rats [3]; 15 min onset, 1 mg/kg s. c., p < 0.05): persisted until the fourth block
- locomotion in 5 min time blocks versus ctrl (male Wistar rats [3]; 15 min onset, 5 mg/kg s. c., p < 0.05–0.001): significant hypolocomotion during the whole session
- locomotion in 5 min time blocks versus ctrl (male Wistar rats [3]; 15 min onset, all the doses (0.2, 1, 5 mg/kg s. c.), p < 0.001): significantly decreased activity in the first three blocks
- locomotion in 5 min time blocks versus ctrl (male Wistar rats [3]; 60 min onset, 1 mg/kg and 5 mg/kg groups, p < 0.01–0.001): persisted to the fifth block
- locomotion in 5 min time blocks versus ctrl (male Wistar rats [3]; 60 min onset, all groups (0.2, 1, 5 mg/kg s. c.), p < 0.05–0.001): reduced activity in the first two blocks
- Maximum mean concentration ([4]; blood serum, 1 mg/kg s. c.): 28 ng/mL
- Time of maximum mean concentration ([4]; blood serum, 1 mg/kg s. c.): ≤ 0.5 h
- Time of peak drug concentration ([4]; brain tissue, 1 mg/kg s. c.): 60 min
- passage through the blood-brain barrier ([4]; brain versus serum concentration, 1 mg/kg s. c.): readily passes through the blood-brain barrier
- AUC0-24 h [4, 7]: 826.3 ± 112.6 ng·h/g
- ka (h^-1) absorption rate constant [4, 7]: 0.685 ± 0.034 h⁻¹
- Tmax ([4]; male, Wistar, rat, sc, brain, 1 mg/kg s. c.): 1.1 h
- half-life ([4]; male, Wistar, rat, sc, brain, 1 mg/kg s. c., Table 1, read-out: t1/2 (converted)): 3.2 h
- Cmax [4, 8]: 159 ± 15.3 ng/g
- k el [4, 8]: 0.655 h⁻¹
- Tmax ([4]; male, Wistar, rat, sc, serum, 1 mg/kg s. c.): 0.8 h
- half-life ([4]; male, Wistar, rat, sc, serum, 1 mg/kg s. c., Table 1, read-out: t1/2 (converted)): 2.55 h
- Cmax [4, 9]: 28.4 ± 6.33 ng/mL
- bioavailability ([4]; male, Wistar, rat, sc, serum, 1 mg/kg s. c., mean ± SEM, one-compartment model, read-out: F (%) bioavailability): 96.1 ± 4.8%
- AUC(0-t) ([4]; male, Wistar, rat, sc, serum, 1 mg/kg s. c., mean ± SEM, read-out: AUC0-24 h): 115 ± 25.6 ng·h/mL
- k el [4, 9]: 0.733 h⁻¹
- half-life ([4]; male, Wistar, rat, subcutaneous, blood serum, 1 mg/kg s. c., read-out: half-life of elimination (converted)): 1.56 h
- half-life ([4]; male, Wistar, rat, subcutaneous, brain, 1 mg/kg s. c., read-out: half-life of elimination (converted)): 2.4 h
- concentration at 8 h ([4]; male, Wistar, rat, subcutaneous, brain, 8 h after 1 mg/kg s. c.): 21 ng/g
- Time of peak drug concentration ([4]; serum, 1 mg/kg s. c.): 30 min
- V d (mL) volume of distribution [4, 10]: 7.231 ± 0.362 mL
- ka (h^-1) absorption rate constant [4, 10]: 0.731 ± 0.036 h⁻¹
- presence in serum after 8 h ([4]; serum, 8 h after 1 mg/kg s. c.): almost undetectable
- number of phase I metabolites [5]: five
- number of phase II metabolites [5]: one
